For assay [1], the target named is T1, PPARα ligand binding domain fused to the yeast GAL4 DNA binding domain (Homo sapiens, UniProt Q07869).
T1 construct: expressed in transfected cells; host or cells: HEK293
T1 sequence (Q07869 239-466 limits assumed): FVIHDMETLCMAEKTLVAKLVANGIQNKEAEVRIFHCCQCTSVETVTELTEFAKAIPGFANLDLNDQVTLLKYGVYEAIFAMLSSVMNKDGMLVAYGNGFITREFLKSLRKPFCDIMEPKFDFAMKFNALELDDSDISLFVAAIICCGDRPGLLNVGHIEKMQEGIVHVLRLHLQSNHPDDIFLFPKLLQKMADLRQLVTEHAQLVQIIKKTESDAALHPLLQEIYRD
The experiment in a line: Transfection assay for PPAR receptors (GAL4-LBD luciferase reporter), PPAR alpha. Type of assay: cell-based. Particulars: HEK293 cells, GAL4 (UAS) luciferase reporter, 18-24 hrs. As for the experimental part: (§1) Transfection Assay Method for PPAR Receptors
(§2) HEK293 cells were grown in DMEM/F12 medium supplemented with 10% FBS and glutamine (Invitrogen) and incubated in a 5% CO2 incubator at 37° C. The cells were co-transfected using DMRIE-C reagent (Invitrogen) in serum free medium (Opti-MEM, Invitrogen) with two mammalian expression plasmids, one containing the DNA sequence coding for the ligand binding domains of either PPARα, γ or δ fused to the yeast GAL4 DNA binding domain and the other containing the promoter sequence of the yeast GAL4 (UAS) fused to the firefly luciferase cDNA reporter. The next day, the medium was changed to DMEM/F12 medium supplemented with 5% charcoal treated serum (Hyclone) and glutamine. After 6 hrs the cells were trypsinized and seeded at a density of 50,000 cells/well into 96 well plates and incubated overnight as above. The cells were then treated with test compounds or vehicle and incubated for 18-24 hrs as above. Luciferase reporter activity was measured using the Steady-Glo Luciferase Assay Kit from Promega. DMRIE-C Reagent was purchased from GIBCO Cat. No. 10459-014. OPTI-MEM I Reduced Serum Medium was purchased from GIBCO (Cat. No. 31985). Steady-Glo Luciferase Assay Kit was purchased from Promega (Part# E254B).
(§3) A variety of example compounds have been made and tested, with a range of in vitro results. Below are representative compounds and data; in some cases, where multiple EC50's are shown, multiple measurements were taken. Naturally, different compounds in Formula (I) may have not have activities identical to any one compound below.

The target of assay [2] is T2, PPARδ ligand binding domain fused to the yeast GAL4 DNA binding domain (Homo sapiens, UniProt Q03181).
T2 construct: expressed in transfected cells; host or cells: HEK293
T2 sequence (Q03181 211-439 limits assumed): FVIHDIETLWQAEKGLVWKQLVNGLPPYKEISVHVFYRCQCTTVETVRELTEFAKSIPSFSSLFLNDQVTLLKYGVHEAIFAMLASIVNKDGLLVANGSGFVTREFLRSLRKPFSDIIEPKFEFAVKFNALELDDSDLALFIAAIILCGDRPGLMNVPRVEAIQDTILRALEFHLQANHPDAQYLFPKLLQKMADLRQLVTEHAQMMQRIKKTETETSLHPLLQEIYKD
The experiment in a line: Transfection assay for PPAR receptors (GAL4-LBD luciferase reporter), PPAR delta. Particulars: HEK293 cells, GAL4 (UAS) luciferase reporter, 18-24 hrs; multiple values = multiple measurements. It counts as cell-based. As for the experimental part: as §1, §2, §3
(In a reporter assay the amount or activity of a reporter protein is the signal.)

The target of assay [3] is T3, PPARγ ligand binding domain fused to the yeast GAL4 DNA binding domain (Homo sapiens, UniProt P37231).
T3 construct: expressed in transfected cells; host or cells: HEK293
T3 sequence (P37231 238-503 limits assumed): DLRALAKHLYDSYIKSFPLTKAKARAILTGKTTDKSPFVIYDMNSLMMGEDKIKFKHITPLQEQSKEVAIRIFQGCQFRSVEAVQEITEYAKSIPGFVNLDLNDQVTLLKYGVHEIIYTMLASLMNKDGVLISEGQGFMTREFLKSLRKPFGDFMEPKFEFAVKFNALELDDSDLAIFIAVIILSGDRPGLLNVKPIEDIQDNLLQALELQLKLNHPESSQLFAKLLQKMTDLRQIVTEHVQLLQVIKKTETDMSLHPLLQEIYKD
The experiment in a line: Transfection assay for PPAR receptors (GAL4-LBD luciferase reporter), PPAR gamma. It counts as cell-based. The settings on record: HEK293 cells, GAL4 (UAS) luciferase reporter, 18-24 hrs. Here is the method:
as §1, §2
A variety of example compounds have been made and tested, with a range of in vitro results. […]

In assay [4] the test system is differentiated THP-1 monocytes. The settings on record: cited from earlier work.

Several values for one entry are separate records, joined by “and”; a condition that tells them apart may be missing. Identical values can stand only once.

`CCC(COc1ccc(C(F)(F)F)cc1)CSc1ccc(OC(C)C(=O)O)c(C)c1` (stereo not shown) [Compound 1, 2-{2-Methyl-4-[2-(4-trifluoromethyl-phenoxymethyl)-butylsulfanyl]-phenoxy}-propionic acid]: the half-maximal effective concentration (EC50) in assay [1] was 548 nM; in assay [2], 13.8 nM and 14.9 nM.
Take `CCC(COc1ccc(C(F)(F)F)cc1)CSc1ccc(OC(C)(C)C(=O)O)c(C)c1` (stereo not shown) [Compound 2, 2-Methyl-2-{2-methyl-4-[2-(4-trifluoromethyl-phenoxymethyl)-butylsulfanyl]-phenoxy}-propionic acid]: the EC50 is 237 nM in assay [1]; 9.1 nM and 11.1 nM in assay [2]; 278 nM in assay [3].
In the case of `CCOC(COc1ccc(C(F)(F)F)cc1)CSc1ccc(OC(C)(C)C(=O)O)c(C)c1` (stereo not shown) [Compound 3, 2-{4-[2-Ethoxy-3-(4-trifluoromethyl-phenoxy)-propylsulfanyl]-2-methyl-phenoxy}-2-methyl-propionic acid], the EC50 was 537 nM in assay [1]; 34 nM and 27.5 nM in assay [2]; 565 nM in assay [3].
`Cc1cc(SCc2sc(-c3ccc(C(F)(F)F)cc3)nc2C)ccc1OCC(=O)O` [GW501516]: in assay [4], the “ABCA1 mRNA expression” value is given as “induced ABCA1 mRNA expression” and the cholesterol efflux result was “enhanced cholesterol efflux”.

As a reminder, the EC50 is the concentration at which the effect is half-maximal. The low end stands for higher potency in that assay, the high end for lower potency in that assay.

Source of the values: patent publication US7812053B2, “4-((phenoxyalkyl)thio)-phenoxyacetic acids and analogs” (Janssen Pharmaceuticals NV, priority 2004, dated 2010).
